Data reported in patent US6613317B1, “Volatile attractants for diabrotica species” (priority 1988, dated 2003).
Marks after values point to notes of the source that are not given here.

How the values were obtained:
NCR = assay: Limit of response rating of squash blossom volatiles on sticky traps (Example 5); type: in vivo, Diabrotica barberi; settings: 24 hour; four replicate traps; 0.01 mg to 200 mg
Procedure: (§1) Over 40 individual volatile chemicals have been isolated from Cucurbita maxima blossoms and circa 25 of these have been unequivocally identified (Andersen, J. F., J. Agric. Food Chem., 35:60-62 (1987): Andersen, J. F. and Metcalf, R. L., J. Chem. Ecol., 12:687-699 (1986)). The major odor components were evaluated as potential attractants for adult Diabrotica species using cylindrical sticky traps baited with dental cotton wicks (Metcalf, R. L., and Lampman, R. L., Paper submitted to J. Econ. Entomol., (1988)) containing from 0.01 mg to 200 mg of volatile compound.

SCR = assay: as above; type: in vivo, Diabrotica undecimpunctata howardi; settings: 24 hour; four replicate traps; 0.01 mg to 200 mg
Procedure: as §1

WCR = assay: as above; type: in vivo, Diabrotica virgifera virgifera; settings: 24 hour; four replicate traps; 0.01 mg to 200 mg
Procedure: as §1

D. barberi = assay: Sticky trap attraction in prairie habitat, Trelease Woods (Example 2); type: in vivo, Diabrotica barberi; settings: 100 mg per trap, n = 4
Procedure: (§2) The candidate lures in all experiments were purchased commercially and exceeded 98% purity. The test chemicals were applied by capillary micropipettes to cotton dental wicks which were attached to the tops of 1.0 liter cylindrical paper cartons covered with TangleTrap™ (Tanglefoot Co., Grand Rapids, Mich.). The sticky trap techniques used were as described in Example 1. Cinnamyl alcohol and para-methoxycinnamaldehyde, which are solids, were dissolved in glass-distilled acetone prior to dosing the cotton wicks. […]. Control traps had untreated cotton wicks. Four replicates of treated and untreated traps were randomly positioned 10 meters apart on top of 1 m high posts along the border of a eight foot wide strip cut through the middle of a 4.05 ha relict prairie at Trelease Woods (ca. two miles northeast of Urbana, Ill.). The field consisted primarily of Andropogon gerardii Vitman (big bluestem) and a variety of composites. The tests were conducted in mid-August of two years and were timed to coincide with the presence of D. cristata and D. barberi adults in the flower heads of Canada thistle (Carduus arvensis Robson). In the second year, several new attractants of D. v. virgifera and D. barberi were tested in Trelease Woods and along the edge of a 0.8 ha field of hybrid corn located at the Pomology South Farms, Urbana, Ill. Attraction of Diabrotica species to the various lures was measured by the mean number of beetles caught after 24-h. On one date in late August of the first year, D. cristata and D. barberi were removed from the traps and sexed in the laboratory. The significance of treatments in all tests was determined by an analysis of variance and the individual means were separated by Duncan's multiple range test (Statistical Package for Social Science, Nie, et al., SPSS: statistical package for the social sciences, 2nd ed. McGraw-Hill, New York (1975). Data were logarithmically transformed for statistical analysis and the means and standard deviations are presented for the untransformed data.

D. cristata = assay: as above; type: in vivo, Diabrotica cristata; settings: 100 mg per trap, n = 4
Procedure: as §2

D. v. virgifera = assay: as above; type: in vivo, Diabrotica virgifera virgifera; settings: 100 mg per trap, n = 4
Procedure: as §2

D. u. howardi = assay: as above; type: in vivo, Diabrotica undecimpunctata howardi; settings: 100 mg per trap, n = 4
Procedure: as §2

Row | SMILES | Attractant Rating NCR (by limit of response) (NCR) | Attractant Rating SCR (by limit of response) (SCR) | Attractant Rating WCR (by limit of response) (WCR) | also measured
1 | OCc1ccccc1 [benzyl alcohol] | 0 (200) | 0 (200) | 0 (200) | 
2 | CCCCCC=O [1-hexanal] | 0 (200) | 0 (200) | 0 (200) | 
3 | CCC/C=C/C=O [trans-2-hexenal] | 0 (200) | 0 (200) | 0 (200) | 
4 | COc1ccc(OC)c(OC)c1 [1,2,4-trimethoxybenzene] | 0 (200) | +1 (30-100) | +1 (30-100) | 
5 | C=CC(C)(O)CCC=C(C)CCC=C(C)C (stereo not shown) [nerolidol] | 0 (200) | 0 (200) | 0 (200) | 
6 | CCCCCCO [1-hexanol] | 0 (200) | 0 (200) | 0 (200) | 
7 | C=CCc1ccc(OC)c(OC)c1 [Methyl eugenol] |  |  |  | Mean number of D. barberi per day (±standard deviation) (D. barberi; August 14, 1987): 1.0 ± 1.4^a per day; Mean number of D. barberi per sticky trap per day (±standard deviation) (D. barberi; August 18, first year): 1.8 ± 1.7^a per sticky trap per day; Mean number of D. barberi per sticky trap per day (±standard deviation) (D. barberi; August 20, first year): 2.0 ± 1.4^ab per sticky trap per day; Mean number of D. cristata per day (±standard deviation) (D. cristata; August 14, 1987): 4.5 ± 1.3^ab per day; Mean number of D. cristata per sticky trap per day (±standard deviation) (D. cristata; August 18, first year): 1.8 ± 1.5^a per sticky trap per day; Mean number of D. cristata per sticky trap per day (±standard deviation) (D. cristata; August 20, first year): 1.5 ± 1.7^a per sticky trap per day; Mean number of D. v. virgifera per day (±standard deviation) (D. v. virgifera; August 14, 1987): 0.0^a per day; Mean number of D. v. virgifera per sticky trap per day (±standard deviation) (D. v. virgifera; August 18, first year): 0.0^a per sticky trap per day; Mean number of D. v. virgifera per sticky trap per day (±standard deviation) (D. v. virgifera; August 20, first year): 0 per sticky trap per day; Mean number of D. u. howardi per day (±standard deviation) (D. u. howardi; August 14, 1987): 0.3 ± 0.5^a per day; Mean number of D. u. howardi per sticky trap per day (±standard deviation) (D. u. howardi; August 18, first year): 0.0^a per sticky trap per day; Mean number of D. u. howardi per sticky trap per day (±standard deviation) (D. u. howardi; August 20, first year): 0.3 ± 0.5^a per sticky trap per day
8 | C=CCc1ccc2c(c1)OCO2 [Safrole] |  |  |  | Mean number of D. barberi per sticky trap per day (±standard deviation) (D. barberi; August 20, first year): 0.25 ± 0.25^a per sticky trap per day; Mean number of D. cristata per sticky trap per day (±standard deviation) (D. cristata; August 20, first year): 1.3 ± 1.9^a per sticky trap per day; Mean number of D. v. virgifera per sticky trap per day (±standard deviation) (D. v. virgifera; August 20, first year): 0 per sticky trap per day; Mean number of D. u. howardi per sticky trap per day (±standard deviation) (D. u. howardi; August 20, first year): 0.0^a per sticky trap per day
